Experimental data: patent publication EP4806891A1 (Kangbaida (Sichuan) Biotechnology Co., Ltd., priority 2023, dated 2025)
pIC50: −log10 of the molar value.

What follows are compounds tested against T1, HEK-Blue-hTLR8 cells (Homo sapiens, UniProt Q9NR97) (assay: HEK-Blue-hTLR8 cell inhibition assay). Settings: R848 3 µM, 16 h, OD 620 nm, read-out: TLR8 IC50.
T1 construct: expressed in transfected cells; host or cells: HEK-Blue-hTLR8 cells (HEK293-derived reporter line)
T1 sequence (Q9NR97 27-1041): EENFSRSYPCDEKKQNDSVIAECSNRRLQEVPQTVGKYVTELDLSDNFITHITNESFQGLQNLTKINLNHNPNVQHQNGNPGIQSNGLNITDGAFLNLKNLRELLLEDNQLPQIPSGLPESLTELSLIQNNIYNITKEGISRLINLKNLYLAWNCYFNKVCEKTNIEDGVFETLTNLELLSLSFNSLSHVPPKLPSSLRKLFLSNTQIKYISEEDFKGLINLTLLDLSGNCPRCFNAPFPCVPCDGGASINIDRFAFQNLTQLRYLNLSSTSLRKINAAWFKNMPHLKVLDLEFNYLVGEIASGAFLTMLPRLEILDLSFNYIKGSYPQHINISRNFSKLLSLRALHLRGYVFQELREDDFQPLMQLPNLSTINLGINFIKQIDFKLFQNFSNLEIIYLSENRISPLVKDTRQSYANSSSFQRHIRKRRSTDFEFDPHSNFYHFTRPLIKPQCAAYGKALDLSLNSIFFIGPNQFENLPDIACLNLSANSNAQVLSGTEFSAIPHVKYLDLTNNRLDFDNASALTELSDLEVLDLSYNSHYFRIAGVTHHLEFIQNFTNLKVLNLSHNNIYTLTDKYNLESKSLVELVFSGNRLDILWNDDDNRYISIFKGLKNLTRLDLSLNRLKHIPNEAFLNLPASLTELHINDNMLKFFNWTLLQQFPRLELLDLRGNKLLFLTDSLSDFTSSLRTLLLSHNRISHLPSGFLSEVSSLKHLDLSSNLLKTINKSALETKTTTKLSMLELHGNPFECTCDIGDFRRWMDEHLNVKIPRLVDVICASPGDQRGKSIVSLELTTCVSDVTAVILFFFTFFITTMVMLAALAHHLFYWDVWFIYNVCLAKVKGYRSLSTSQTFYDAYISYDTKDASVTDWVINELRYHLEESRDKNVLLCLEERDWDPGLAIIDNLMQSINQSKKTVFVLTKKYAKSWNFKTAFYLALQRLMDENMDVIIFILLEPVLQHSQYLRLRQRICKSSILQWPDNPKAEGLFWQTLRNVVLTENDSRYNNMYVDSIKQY
Type: cell-based
Method in brief: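 Cells were pre-incubated 4 h, then co-treated 16 h at 37 °C with compound (10 doses, 0.5–10000 nM final) plus R848 (0.8 µM for TLR7, 3 µM for TLR8) or ODN2006 (1 µM, TLR9). Reporter OD620 gave inhibition relative to DMSO blank and agonist-only controls; IC50 came from curve fitting.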

Row | pIC50 | SMILES
1 | > 7.00 | CN1CCC(n2cnc([C@]34CN(c5ccc(C#N)c6ncccc56)C[C@@]3(C(F)(F)F)C4)n2)CC1 [Compound 23, 5-((1S,5R)-1-(1-(1-methylpiperidin-4-yl)-1H-1,2,4-triazol-3-yl)-5-(trifluoromethyl)-3-azabicyclo[3.1.0]hexan-3-yl)quinoline-8-carbonitrile]
2 | > 7.00 | N#Cc1ccc(N2C[C@]3(c4nnc(C#CCN5CCOCC5)o4)C[C@]3(C(F)(F)F)C2)c2cccnc12 [Compound 24, 5-((1S,5R)-1-(5-(3-morpholinoprop-1-yn-1-yl)-1,3,4-oxadiazol-2-yl)-5-(trifluoromethyl)-3-azabicyclo[3.1.0]hexan-3-yl)quinoline-8-carbonitrile]
3 | > 7.00 | CN(C)CC#Cc1nnc([C@]23CN(c4ccc(C#N)c5ncccc45)C[C@@]2(C(F)(F)F)C3)o1 [Compound 25, 5-((1S,5R)-1-(5-(3-(dimethylamino)prop-1-yn-1-yl)-1,3,4-oxadiazol-2-yl)-5-(trifluoromethyl)-3-azabicyclo[3.1.0]hexan-3-yl)quinoline-8-carbonitrile]
4 | > 7.00 | CC1(C)CC(Cc2nnc([C@]34CN(c5ccc(C#N)c6ncccc56)C[C@@]3(C(F)(F)F)C4)o2)CC(C)(C)N1 [Compound 26, 5-((1S,5R)-1-(5-((2,2,6,6-tetramethylpiperidin-4-yl)methyl)-1,3,4-oxadiazol-2-yl)-5-(trifluoromethyl)-3-azabicyclo[3.1.0]hexan-3-yl)quinoline-8-carbonitrile]
5 | > 6.00 | N#Cc1ccc(N2C[C@]3(c4nnc(N5CCOCC5)o4)C[C@]3(C(F)(F)F)C2)c2cccnc12 [Compound 27, 5-((1S,5R)-1-(5-morpholino-1,3,4-oxadiazol-2-yl)-5-(trifluoromethyl)-3-azabicyclo[3.1.0]hexan-3-yl)quinoline-8-carbonitrile]
6 | > 7.00 | CN1CCC(Oc2nnc([C@]34CN(c5ccc(C#N)n6ncc(F)c56)C[C@@]3(C(F)(F)F)C4)o2)CC1 [Compound 31, 3-fluoro-4-((1S,5R)-1-(5-((1-methylpiperidin-4-yl)oxy)-1,3,4-oxadiazol-2-yl)-5-(trifluoromethyl)-3-azabicyclo[3.1.0]hexan-3-yl)pyrazolo[1,5-a]pyridine-7-carbonitrile]
7 | > 7.00 | CN1CC(Cc2nnc([C@]34CN(c5ccc(C#N)c6ncccc56)C[C@@]3(C(F)(F)F)C4)o2)C1 [Compound 36, 5-((1S,5R)-1-(5-((1-methylazetidin-3-yl)methyl)-1,3,4-oxadiazol-2-yl)-5-(trifluoromethyl)-3-azabicyclo[3.1.0]hexan-3-yl)quinoline-8-carbonitrile]
8 | > 7.00 | CN1CCC(Cc2nnc([C@]34CN(c5ccc(C#N)c6ncccc56)C[C@@]3(C(F)(F)F)C4)o2)CC1 [Compound 37, 5-((1S,5R)-1-(5-((1-methylpiperidin-4-yl)methyl)-1,3,4-oxadiazol-2-yl)-5-(trifluoromethyl)-3-azabicyclo[3.1.0]hexan-3-yl)quinoline-8-carbonitrile]
9 | > 6.00 | CN1CCC(Cc2nnc([C@]34CN(c5ccc(C#N)c6ncccc56)C[C@@]3(C(F)(F)F)C4)n2C)CC1 [Compound 38, 5-((1S,5R)-1-(4-methyl-5-((1-methylpiperidin-4-yl)methyl)-4H-1,2,4-triazol-3-yl)-5-(trifluoromethyl)-3-azabicyclo[3.1.0]hexan-3-yl)quinoline-8-carbonitrile]
10 | > 6.00 | N#Cc1ccc(N2C[C@]3(c4nnc(CN5CCOCC5)o4)C[C@]3(C(F)(F)F)C2)c2cccnc12 [Compound 40, 5-((1S,5R)-1-(5-(morpholinomethyl)-1,3,4-oxadiazol-2-yl)-5-(trifluoromethyl)-3-azabicyclo[3.1.0]hexan-3-yl)quinoline-8-carbonitrile]
11 | > 6.00 | N#Cc1ccc(N2C[C@]3(c4nnc(CN5CCCC5)o4)C[C@]3(C(F)(F)F)C2)c2cccnc12 [Compound 41, 5-((1S,5R)-1-(5-(Pyrrolidin-1-ylmethyl)-1,3,4-oxadiazol-2-yl)-5-(trifluoromethyl)-3-azabicyclo[3.1.0]hexan-3-yl)quinoline-8-carbonitrile]
12 | > 7.00 | N#Cc1ccc(N2C[C@]3(c4nnc(CCN5CCOCC5)o4)C[C@]3(C(F)(F)F)C2)c2cccnc12 [Compound 43, 5-((1S,5R)-1-(5-(morpholinoethyl)-1,3,4-oxadiazol-2-yl)-5-(trifluoromethyl)-3-azabicyclo[3.1.0]hexan-3-yl)quinoline-8-carbonitrile]
13 | < 6.00 | Cn1c(CN2CCCC2)nnc1[C@]12CN(c3ccc(C#N)c4ncccc34)C[C@@]1(C(F)(F)F)C2 [Compound 44, 5-((1S,5R)-1-(4-methyl-5-(pyrrolidin-1-ylmethyl)-4H-1,2,4-triazol-3-yl)-5-(trifluoromethyl)-3-azabicyclo[3.1.0]hexan-3-yl)quinoline-8-carbonitrile]
14 | > 7.00 | N#Cc1ccc(N2C[C@]3(c4nnc(C5CNCC(F)C5)o4)C[C@]3(C(F)(F)F)C2)c2cccnc12 (stereo partly drawn) [Compound 45, 5-((1R,5S)-1-((difluoro-3-methyl)-12-fluoraneyl)-5-(5-(5-fluoropiperidin-3-yl)-1,3,4-oxadiazol-2-yl)-3-azabicyclo[3.1.0]hexan-3-yl)quinoline-8-carbonitrile]

More lines, now with the values behind:

Row | SMILES | pIC50
15 | CN(C)[C@H]1CC[C@H](c2nnc([C@]34CN(c5ccc(C#N)c6ncccc56)C[C@@]3(C(F)(F)F)C4)o2)CC1 [Compound 21, 5-((1S,5R)-1-(5-((1R,4S)-4-(dimethylamino)cyclohexyl)-1,3,4-oxadiazol-2-yl)-5-(trifluoromethyl)-3-azabicyclo[3.1.0]hexan-3-yl)quinoline-8-carbonitrile] | > 7.00
16 | N#Cc1ccc(N2C[C@]3(c4nnc(C5=CCNC5)o4)C[C@]3(C(F)(F)F)C2)c2cccnc12 [Compound 22, 5-((1S,5R)-1-(5-(2,5-dihydro-1H-pyrrol-3-yl)-1,3,4-oxadiazol-2-yl)-5-(trifluoromethyl)-3-azabicyclo[3.1.0]hexan-3-yl)quinoline-8-carbonitrile] | > 7.00
17 | CN1CC(Cc2nnc([C@]34CN(c5ccc(C#N)n6ncc(F)c56)C[C@@]3(C(F)(F)F)C4)o2)C1 [Compound 30, 3-fluoro-4-((1S,5R)-1-(5-((1-methylazetidin-3-yl)methyl)-1,3,4-oxadiazol-2-yl)-5-(trifluoromethyl)-3-azabicyclo[3.1.0]hexan-3-yl)pyrazolo[1,5-a]pyridine-7-carbonitrile] | > 7.00
18 | N#Cc1ccc(N2C[C@]3(c4nnc(C5(F)CNC5)o4)C[C@]3(C(F)(F)F)C2)c2cccnc12 [Compound 32, 5-((1S,5R)-1-(5-(3-Fluoroazetidin-3-yl)-1,3,4-oxadiazol-2-yl)-5-(trifluoromethyl)-3-azabicyclo[3.1.0]hexan-3-yl)quinoline-8-carbonitrile] | > 7.00
19 | N#Cc1ccc(N2C[C@]3(c4nnc(C5CCNCC5F)o4)C[C@]3(C(F)(F)F)C2)c2cccnc12 (stereo partly drawn) [Compound 33] | > 7.00
20 | CN1CCC(c2nnc([C@]34CN(c5ccc(C#N)c6ncccc56)C[C@@]3(C(F)(F)F)C4)o2)CC1=O (stereo partly drawn) [Compound 34] | > 6.00
21 | N#Cc1ccc(N2C[C@]3(c4nnc(CC5CNC5)o4)C[C@]3(C(F)(F)F)C2)c2cccnc12 [Compound 35, 5-((1S,5R)-1-(5-(azetidin-3-ylmethyl)-1,3,4-oxadiazol-2-yl)-5-(trifluoromethyl)-3-azabicyclo[3.1.0]hexan-3-yl)quinoline-8-carbonitrile] | > 6.00
22 | CN1CC(c2nnc([C@]34CN(c5ccc(C#N)c6ncccc56)C[C@@]3(C(F)(F)F)C4)o2)C1 [Compound 39, 5-((1S,5R)-1-(5-(1-methylazetidin-3-yl)-1,3,4-oxadiazol-2-yl)-5-(trifluoromethyl)-3-azabicyclo[3.1.0]hexan-3-yl)quinoline-8-carbonitrile] | > 7.00
23 | CN(C)Cc1nnc([C@]23CN(c4ccc(C#N)c5ncccc45)C[C@@]2(C(F)(F)F)C3)o1 [Compound 42, 5-((1S,5R)-1-(5-((dimethylamino)methyl)-1,3,4-oxadiazol-2-yl)-5-(trifluoromethyl)-3-azabicyclo[3.1.0]hexan-3-yl)quinoline-8-carbonitrile] | > 6.00
24 | N#Cc1ccc(N2C[C@]3(c4nnc(C5(F)CCNC5)o4)C[C@]3(C(F)(F)F)C2)c2cccnc12 (stereo partly drawn) [Compound 46, 5-((1S,5R)-1-(5-(3-fluoropyrrolidin-3-yl)-1,3,4-oxadiazol-2-yl)-5-(trifluoromethyl)-3-azabicyclo[3.1.0]hexan-3-yl)quinoline-8-carbonitrile] | > 7.00
